Assay results reported in patent US20260109707A1, “HETEROBIFUNCTIONAL COMPOUNDS AND METHODS OF TREATING DISEASE” (Halda Therapeutics OpCo. Inc., priority 2022, published 2026).

Key:
androgen receptor = molecular target: T1, androgen receptor (Homo sapiens, UniProt P10275); experiment: Assay for binding affinity to androgen receptor ([3H]methyltrienolone radioligand, cell cytosol); details: binding to the androgen receptor, Table 3
T1 sequence (P10275 1-920 T878A): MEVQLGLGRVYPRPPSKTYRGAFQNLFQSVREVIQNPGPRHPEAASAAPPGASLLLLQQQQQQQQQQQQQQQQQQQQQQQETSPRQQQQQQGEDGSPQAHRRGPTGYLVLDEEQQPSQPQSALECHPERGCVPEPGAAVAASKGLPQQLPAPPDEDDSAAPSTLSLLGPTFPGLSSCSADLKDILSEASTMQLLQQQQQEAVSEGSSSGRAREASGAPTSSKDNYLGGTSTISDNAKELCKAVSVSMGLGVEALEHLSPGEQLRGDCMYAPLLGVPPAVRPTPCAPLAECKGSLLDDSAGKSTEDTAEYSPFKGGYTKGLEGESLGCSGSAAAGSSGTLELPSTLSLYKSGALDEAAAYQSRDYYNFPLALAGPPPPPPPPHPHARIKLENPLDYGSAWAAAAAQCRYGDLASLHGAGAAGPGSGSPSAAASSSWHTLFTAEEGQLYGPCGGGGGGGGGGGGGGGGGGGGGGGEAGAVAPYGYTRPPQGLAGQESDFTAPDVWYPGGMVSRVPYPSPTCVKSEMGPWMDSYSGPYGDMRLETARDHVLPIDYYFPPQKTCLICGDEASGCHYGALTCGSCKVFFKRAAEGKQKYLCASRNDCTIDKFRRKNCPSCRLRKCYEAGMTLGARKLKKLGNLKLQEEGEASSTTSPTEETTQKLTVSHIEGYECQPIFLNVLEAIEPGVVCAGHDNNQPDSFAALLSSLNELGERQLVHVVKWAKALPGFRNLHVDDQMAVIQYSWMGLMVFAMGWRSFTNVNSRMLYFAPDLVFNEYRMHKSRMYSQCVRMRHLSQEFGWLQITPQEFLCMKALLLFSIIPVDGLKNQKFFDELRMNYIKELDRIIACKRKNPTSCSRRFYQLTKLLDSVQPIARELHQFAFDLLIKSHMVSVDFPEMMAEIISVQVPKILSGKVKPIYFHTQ
Experimental: Fractions of cell cytosol ([…]) were incubated for 24 hr at 4° C. with 1 nM [^3H]methyltrienolone in the absence or presence of the test compound in a buffer containing 25 mM Hepes-Tris (pH 7.4), 1 mM EDTA, 10 mM Na2MoO4, 2 mM DTT, 5 μM triamcinolone acetonide, and 10% glycerol. Nonspecific binding was determined in the presence of […] testosterone. Following incubation, the samples were filtered rapidly under vacuum through glass fiber filters (GF/B, Packard) presoaked with 0.3% PEI and rinsed several times with ice-cold 50 mM Tris-HCl using a 96-sample cell harvester (Unifilter, Packard). The filters were dried then counted for radioactivity in a scintillation counter (Topcount, Packard) using a scintillation cocktail (Microscint 0, Packard). The results are expressed as a percent inhibition of the control radioligand specific binding. The standard reference compound is testosterone, which is tested in each experiment at several concentrations to obtain a competition curve from which its IC50 is calculated.

VCaP cells = experiment: Cellular growth inhibition assay for VCaP cells (CellTiter-Glo, 72 hours); type: cell-based, human; details: Homo sapiens, VCaP, 72 h
How it was run: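 Luminescent viability signal after 72 h of compound exposure gave GI50 values by four-parameter nonlinear regression. Compounds were added in 0.5% DMSO to cells plated 24 h earlier at 5000/well in DMEM containing 10% FBS.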

Kd (androgen receptor) [nM]	GI50 (VCaP cells) [nM]	Structure (SMILES)
< 50	< 500	CCNC(=O)C[C@@H]1N=C(c2ccc(OCCOC3CCN(c4ccc(C(=O)N[C@H]5CC[C@H](Oc6ccc(C#N)c(Cl)c6)CC5)nn4)CC3)cc2)c2c(sc(C)c2C)-n2c(C)nnc21 [I-8]
< 50	< 500	CCNC(=O)C[C@@H]1N=C(c2ccc(CC3CCN(c4ccc(C(=O)N[C@H]5CC[C@H](Oc6ccc(C#N)c(Cl)c6)CC5)nn4)CC3)cc2)c2c(sc(C)c2C)-n2c(C)nnc21 [I-20]
< 50	< 500	CCNC(=O)C[C@@H]1N=C(c2ccc(N3CCC(OC4CCN(c5ccc(C(=O)N[C@H]6CC[C@H](Oc7ccc(C#N)c(Cl)c7)CC6)nn5)CC4)CC3)cc2)c2c(sc(C)c2C)-n2c(C)nnc21 [I-44]
< 50	< 500	Cc1sc2c(c1C)C(c1ccc(Cl)cc1)=N[C@@H](CC(=O)NCCOCCOCCOC1CCN(c3ccc(C(=O)N[C@H]4CC[C@H](Oc5ccc(C#N)c(Cl)c5)CC4)nn3)CC1)c1nnc(C)n1-2 [I-2, N-[4-(3-chloro-4-cyano-phenoxy)cyclohexyl]-6-[4-[2-[2-[2-[[2-[(9S)-7-(4-chlorophenyl)-4,5,13-trimethyl-3-thia-1,8,11,12-tetrazatricyclo[8.3.0.0^2,6]trideca-2(6),4,7,10,12-pentaen-9-yl]acetyl]amino]ethoxy]ethoxy]ethoxy]-1-piperidyl]pyridazine-3-carboxamide]
< 50	< 500	CCNC(=O)C[C@@H]1N=C(c2ccc(OCCOCCOC3CCN(c4ccc(C(=O)N[C@H]5CC[C@H](Oc6ccc(C#N)c(Cl)c6)CC5)nn4)CC3)cc2)c2c(sc(C)c2C)-n2c(C)nnc21 [I-10]
< 50	< 500	CCNC(=O)C[C@@H]1N=C(c2ccc(OCCCN(C)c3ccc(C(=O)N[C@H]4CC[C@H](Oc5ccc(C#N)c(Cl)c5)CC4)nn3)cc2)c2c(sc(C)c2C)-n2c(C)nnc21 [I-48]
< 50	< 500	Cc1sc2c(c1C)C(c1ccc(Cl)cc1)=N[C@@H](CC(=O)NCCOC1CCN(c3ccc(C(=O)N[C@H]4CC[C@H](Oc5ccc(C#N)c(Cl)c5)CC4)nn3)CC1)c1nnc(C)n1-2 [I-1, N-[4-(3-chloro-4-cyano-phenoxy)cyclohexyl]-6-[4-[2-[[2-[(9S)-7-(4-chlorophenyl)-4,5,13-trimethyl-3-thia-1,8,11,12-tetrazatricyclo[8.3.0.0^2,6]trideca-2(6),4,7,10,12-pentaen-9-yl]acetyl]amino]ethoxy]-1-piperidyl]pyridazine-3-carboxamide]
< 50	< 500	CCNC(=O)C[C@@H]1N=C(c2ccc(N3CC4(C3)CN(c3ccc(C(=O)N[C@H]5CC[C@H](Oc6ccc(C#N)c(Cl)c6)CC5)nn3)C4)cc2)c2c(sc(C)c2C)-n2c(C)nnc21 [I-24]
–	< 500	CCNC(=O)C[C@@H]1N=C(c2ccc(CCCOC3CCN(c4ccc(C(=O)N[C@H]5CC[C@H](Oc6ccc(C#N)c(Cl)c6)CC5)nn4)CC3)cc2)c2c(sc(C)c2C)-n2c(C)nnc21 [I-17]
< 50	< 500	CCNC(=O)C[C@@H]1N=C(c2ccc(OCC3CN(c4ccc(C(=O)N[C@H]5CC[C@H](Oc6ccc(C#N)c(Cl)c6)CC5)nn4)C3)cc2)c2c(sc(C)c2C)-n2c(C)nnc21 [I-29]
